Results: article PMC13381803, “Phage-encoded factor stimulates DNA degradation by the Hna anti-phage defense system” (Nature Communications, 2026)

Tests used:
Format in all cases: biochemical
Hna [1] = target: T1, Hna (Sinorhizobium meliloti, UniProt Q92XN4); experiment: malachite green phosphate release assay; conditions: 20 µM ATP; 10 nM ssDNA; 10 mM MgCl2; pH 7.5; 37 °C
T1 construct: gene SMa2245; full length, 845 residues; recombinant E. coli (codon-optimised); N-terminal 6xHis-MBP-TEV tags cleaved with TEV; monomer, ATP-stabilised homodimer

Hna [2] = target: T1, Hna; experiment: ssDNA cleavage time courses by capillary electrophoresis, […] ATP; conditions: 10 mM MgCl2; pH 7.5; 37 °C; nuclease read-out, ATP binds helicase domain
Hna [3] = target: T2, Hna (Sinorhizobium meliloti, UniProt Q92XN4, P712A/D713A/E727A); experiment: malachite green phosphate release assay; conditions: ssDNA present; Mg2+; pH 7.5; 37 °C
T2 construct: gene SMa2245; full length, 845 residues; recombinant E. coli (codon-optimised); N-terminal 6xHis-MBP-TEV tags cleaved with TEV; monomer, ATP-stabilised homodimer
T2 sequence (Q92XN4 entry or part of it P712A/D713A/E727A): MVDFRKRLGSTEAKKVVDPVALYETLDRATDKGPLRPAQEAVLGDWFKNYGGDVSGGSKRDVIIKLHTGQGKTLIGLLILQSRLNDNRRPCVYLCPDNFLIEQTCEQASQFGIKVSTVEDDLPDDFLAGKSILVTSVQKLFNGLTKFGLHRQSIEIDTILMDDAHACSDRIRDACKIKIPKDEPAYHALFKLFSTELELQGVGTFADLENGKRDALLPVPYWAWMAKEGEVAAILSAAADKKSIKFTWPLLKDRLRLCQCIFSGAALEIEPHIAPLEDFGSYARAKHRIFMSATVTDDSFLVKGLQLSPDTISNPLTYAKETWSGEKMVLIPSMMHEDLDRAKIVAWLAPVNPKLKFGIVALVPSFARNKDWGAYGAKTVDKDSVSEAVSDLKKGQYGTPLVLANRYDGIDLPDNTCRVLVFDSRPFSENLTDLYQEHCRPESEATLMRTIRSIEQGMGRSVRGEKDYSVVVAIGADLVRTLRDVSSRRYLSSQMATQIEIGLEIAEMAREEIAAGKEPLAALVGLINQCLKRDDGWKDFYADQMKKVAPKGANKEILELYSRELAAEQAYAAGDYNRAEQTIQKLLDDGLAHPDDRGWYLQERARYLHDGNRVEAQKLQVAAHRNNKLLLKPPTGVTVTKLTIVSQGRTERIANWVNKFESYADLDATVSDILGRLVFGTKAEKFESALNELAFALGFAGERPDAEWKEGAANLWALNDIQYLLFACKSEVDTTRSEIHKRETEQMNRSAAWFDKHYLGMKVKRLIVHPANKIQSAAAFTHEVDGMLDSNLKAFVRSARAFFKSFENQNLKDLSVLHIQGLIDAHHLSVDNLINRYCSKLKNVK

T1 sequence (Q92XN4 entry or part of it): as the sequence (Q92XN4 entry or part of it P712A/D713A/E727A) above, with A712P, A713D, A727E counted along it

Nc1ncnc2c1ncn2[C@@H]1O[C@H](COP(=O)(O)OP(=O)(O)OP(=O)(O)O)[C@@H](O)[C@H]1O [ATP]
malachite green phosphate release assay (Hna [1]): Hna possesses minimal innate ATPase activity that is significantly enhanced by the inclusion of ssDNA
inhibition of ssDNA cleavage (Hna [2]): significant reduction in ssDNA cleavage across all concentrations of ATP tested
ATPase activity (significant increase) (Hna [3]): significant increase in ATP hydrolysis by PDE Hna
